Results reported in patent US10647680B2, “Urea compound, preparation method therefor and medical use thereof” (Ancureall Pharmaceutical (Shanghai) Co., Ltd., priority 2016, dated 2020).
pIC50: −log10 of the molar value.

Experiments:
Assay type in all cases: in vitro ADME
[1] = Stability in rat hepatocytes
Method: The stability experiment on rat hepatocytes was performed using compound 77 of the present invention as a representative example.
Procedure: The rat hepatocyte William's Medium E mixed reaction solution (2*10^6 cells/mL, 25 BD Gentest) was placed in a carbon dioxide incubator, and a certain volume of test substance or reference substance was added to the reaction system to initiate the reaction. In the final reaction system, the concentrations of the test substance or positive control testosterone were both 1 uM. Samples were taken at 0, 5, 15, 30, 45, 60, and 120 min after the reaction to a new centrifuge tube (3 portions in parallel at each time point), and 3-fold volume of ice methanol solution containing internal standard was added immediately to terminate the reactions, then after centrifugation for 5 min at 15,000 rpm to precipitate the protein, 100 μL of the supernatant was fetched to an autosampler vial for LC-MS/MS analysis (Waters Corp. ACQUITY UPLC, USA Applied Biosystems Inc. mass spectrometer API 400). The ratio of mean peak area of compound 77 to the mean peak area of internal standard at each time point was calculated, and the percentage of this ratio to that at time point 0 was calculated, and then change in this percentage was used to indicate the metabolic stability of the compound 77. […]

[2] = Metabolic stability in rat liver microsomes; details: rat liver microsome
Method: The experiment on the compound stability in rat liver microsomes was performed using compound 77 of the present invention as a representative example.
Procedure: The mixed reaction solution containing reducing coenzyme II (1 mg/ml, Roche 10621706001), rat liver microsomes (0.5 mg/ml, BD Gentest), phosphate buffer (0.1M) and ionized water was prepared according to a certain ratio, and then the reaction solution was placed in a 37° C. water bath and preheated for 2 minutes. A certain amount of compound 77 or reference substance was added to the prepared mixed reaction solution to start the reaction. In the final reaction system, the concentration of compound 77 or the positive control midazolam (National Institutes for Food and Drug Control) was 2 uM, and water was used instead of reducing coenzyme II as a negative control. […] The ratio of mean peak area of compound 77 to the mean peak area of internal standard at each time point was calculated, and the percentage of this ratio to that at time point 0 was calculated, and then change in this percentage was used to indicate the metabolic stability of the compound 77. […]

[3] = target: T1, CYP2C9 (Homo sapiens, UniProt P11712); assay: P450 enzyme inhibition, CYP2C9; details: human liver microsomes
T1 construct: human liver microsomes (BD Gentest) (0.5 mg/mL); tissue BD Gentest; host or cells: human liver microsomes
Method: (§1) Eight cytochrome p450 enzyme inhibition reactions of human liver microsomes were performed using compound 77 of the present invention as a representative example.
(§2) The main reaction systems and processes: in 37° C. water bath, the test compounds (7 concentrations, 0, 0.25, 0.5, 5, 10, 25, and 50 uM; the final methanol concentration was 1% in the system), human liver microsomes (BD Gentest) (0.5 mg/mL) and reducing coenzyme II (Roche 10621706001) (1 mg/mL) and the corresponding cytochrome p450 enzyme probe substrate were co-incubated for 5 to 20 minutes. Among them, (1) the probe substrate for CYP1A2 was Phenacetin ([…]) (Sigma), and the selective inhibitor alpha-naphthoflavone (2 uM) (Sigma) was for parallel detection as positive control, and they were incubated for 20 minutes. (2) The probe substrate for CYP2b6 was Bupropion (40 uM) (Sigma) and the selective inhibitor Ticlopidine (10 uM) (Sigma) was for parallel detection as positive control, and they were incubated for 20 minutes. (3) The probe substrate of CYP2C8 was Amodiaquine (1 uM) (Sigma), and the selective inhibitor Montelukast (10 uM) (Sigma) was for parallel detection as positive control, and they were incubated for 20 minutes. (4) The probe substrate for CYP2C9 was Diclofenac (2.5 uM) (Sigma), and the selective inhibitor Sulphaphenazole (10 uM) (Sigma) was for parallel detection as positive control, and they were incubated for 20 minutes. (5) The probe substrate for CYP2C19 was Mephenytoin (40 uM) (Sigma), and the selective inhibitor Ticlopidine (10 uM) (Sigma) was for parallel detection as positive control, and they were incubated for 20 minutes. (6) The probe substrate for CYP2D6 was Dextromethorphan (5 uM) (Sigma), and the selective inhibitor Quinidine (10 uM) (Sigma) was for parallel detection as positive control, and they were incubated for 20 minutes. (7) The probe substrates for CYP3A4-T and CYP3A4-M were Testosterone (5 uM) (Sigma) and Midazolam (5 uM) (Sigma), respectively, and the selective inhibitor was Ketoconazole (1 uM) (Sigma), they were detected in parallel as positive control, and incubated for 5 minutes. The reaction system was quenched by adding methanol containing the corresponding internal standard. The internal standard compound was Tolbutamide (Sigma). The concentration of the corresponding metabolites was determined by LC/MS/MS. For the data analysis, the decrease in peak area of the metabolite of the sample after addition of compound 77 relative to the peak area of the metabolite of the solvent control sample was used to calculate the IC50 (concentration of the test substance at 50% inhibition). The percentages of peak areas of metabolites of CYP1A2, CYP2B6, CYP2C8, CYP2C9, 15CYP2C19, CYP2D6, CYP3A4-T, and CYP3A4-M probe substrates after addition of different concentrations of compound 77 and selective inhibitors relative to the solvent control peak areas were shown in the Table 7.

[4] = target: T2, CYP3A4-T (Homo sapiens, UniProt P08684); assay: P450 enzyme inhibition, CYP3A4-T (Testosterone); details: human liver microsomes
T2 construct: human liver microsomes (BD Gentest) (0.5 mg/mL); tissue BD Gentest; host or cells: human liver microsomes
Method: as §1, §2

T1 sequence (P11712 whole entry): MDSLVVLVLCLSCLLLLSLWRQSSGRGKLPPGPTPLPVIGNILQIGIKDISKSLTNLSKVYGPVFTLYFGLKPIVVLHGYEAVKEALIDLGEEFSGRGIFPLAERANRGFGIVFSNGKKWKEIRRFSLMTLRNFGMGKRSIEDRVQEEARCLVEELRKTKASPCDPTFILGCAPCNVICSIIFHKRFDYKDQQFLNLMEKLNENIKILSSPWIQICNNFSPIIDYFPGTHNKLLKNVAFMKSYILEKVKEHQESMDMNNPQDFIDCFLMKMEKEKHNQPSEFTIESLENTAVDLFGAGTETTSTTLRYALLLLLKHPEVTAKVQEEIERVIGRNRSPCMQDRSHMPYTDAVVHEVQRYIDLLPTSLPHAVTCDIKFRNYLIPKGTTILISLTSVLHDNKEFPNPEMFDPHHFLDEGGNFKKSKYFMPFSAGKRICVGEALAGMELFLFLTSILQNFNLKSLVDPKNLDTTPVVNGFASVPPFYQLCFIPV
T2 sequence (P08684 whole entry): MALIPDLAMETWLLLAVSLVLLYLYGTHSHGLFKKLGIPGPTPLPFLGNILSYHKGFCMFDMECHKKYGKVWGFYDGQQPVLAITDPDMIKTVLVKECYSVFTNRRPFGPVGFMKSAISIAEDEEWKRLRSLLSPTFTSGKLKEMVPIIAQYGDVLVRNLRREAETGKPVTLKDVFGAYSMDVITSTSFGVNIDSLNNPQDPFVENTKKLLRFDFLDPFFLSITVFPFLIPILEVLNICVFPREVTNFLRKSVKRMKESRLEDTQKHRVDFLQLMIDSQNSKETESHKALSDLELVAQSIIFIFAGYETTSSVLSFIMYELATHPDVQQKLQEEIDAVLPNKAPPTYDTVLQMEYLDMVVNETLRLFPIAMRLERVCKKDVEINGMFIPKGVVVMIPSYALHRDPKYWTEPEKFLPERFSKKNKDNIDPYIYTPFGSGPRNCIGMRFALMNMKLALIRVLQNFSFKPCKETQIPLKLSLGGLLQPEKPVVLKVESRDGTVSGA

Structure (SMILES): COCCOc1ccc2c(c1)ncn2-c1ccc(NC(=O)Nc2cc(C(C)(C)C)n[nH]2)cc1 [Compound 77, 1-(5-tert-butyl-2H-pyrazol-3-yl)-3-{4-[5-(2-methoxyl-ethoxyl)-benzimidazol-1-yl]-phenyl}-urea]
- half-life at 1 uM [1]: > 120 min
- elimination rate constant ([2]; 2 uM): 0.0031
- half-life at 2 uM ([2]; rat liver microsomes): 224 min
- CYP2C9 Remaining % ([3]; Concentration 0.25 uM): 99.6%
- CYP2C9 Remaining % ([3]; Concentration 0.5 uM): 104.5%
- CYP2C9 Remaining % ([3]; Concentration 5 uM): 99.0%
- CYP2C9 Remaining % ([3]; Concentration 10 uM): 90.9%
- CYP2C9 Remaining % ([3]; Concentration 25 uM): 72.5%
- CYP2C9 Remaining % ([3]; Concentration 50 uM): 39.9%
- pIC50 ([3]; read-out: half-inhibitory concentration (IC50) of CYP2C9): 4.38
- CYP3A4T Remaining % ([4]; Concentration 0.25 uM): 108.5%
- CYP3A4T Remaining % ([4]; Concentration 0.5 uM): 108.2%
- CYP3A4T Remaining % ([4]; Concentration 5 uM): 104.7%
- CYP3A4T Remaining % ([4]; Concentration 10 uM): 112.5%
- CYP3A4T Remaining % ([4]; Concentration 25 uM): 109.9%
- CYP3A4T Remaining % ([4]; Concentration 50 uM): 101.2%
- inhibitory effect on CYP3A4-T ([4]; Concentration 50 uM): no significant inhibitory effect
